US20250296959A1, “B7-H3 TARGETING PEPTIDES AND CONSTRUCTS THEREOF” (Mariana Oncology Inc., priority 2024, published 2025)
Starred links: 1 amine or outer side, 2 acyl side, 3 side chain; linkers in the order of their positions; H or OH if unused. Positions of bridges follow the written chain, without caps; N, C: chain ends. Non-standard residues stand in square brackets, D forms with d. Residues, ends and D or L forms follow the SMILES beside them. Groups on a side chain read outwards from the residue. *: point of attachment. Ala(piperidin-4-yl) = O=C([C@H](CC1CCN([*:3])CC1)N[*:1])[*:2]; DOTA = O=C(O)CN1CCN(CC(=O)O)CCN(CC(=O)*)CCN(CC(=O)O)CC1; Phe(4-COOH) = N[C@@H](Cc1ccc(C(=O)O)cc1)C(=O)O; Trp(5-F) = N[C@@H](Cc1c[nH]c2ccc(F)cc12)C(=O)O; γGlu = O=C(O)[C@H](CCC(=O)[*:2])N[*:1]; 1Nal = N[C@@H](Cc1cccc2ccccc12)C(=O)O; Ala(4-THP) = N[C@@H](CC1CCOCC1)C(=O)O; AEF = NCCOc1ccc(C[C@H](N)C(=O)O)cc1; Val(3-OH) = CC(C)(O)[C@H](N)C(=O)O; tBuAla = CC(C)(C)C[C@H](N)C(=O)O; 4Pal = N[C@@H](Cc1ccncc1)C(=O)O; PEG4 = NCCOCCOCCOCCOCCC(=O)O; Tle = CC(C)(C)[C@H](N)C(=O)O; hLeu = CC(C)CC[C@H](N)C(=O)O; NMeS = CN[C@@H](CO)C(=O)O; hSer = N[C@@H](CCO)C(=O)O; Nle = CCCC[C@H](N)C(=O)O

Target: T1, human 4lg B7-H3 (Homo sapiens, UniProt Q5ZPR3)
T1 sequence (Q5ZPR3 29-534): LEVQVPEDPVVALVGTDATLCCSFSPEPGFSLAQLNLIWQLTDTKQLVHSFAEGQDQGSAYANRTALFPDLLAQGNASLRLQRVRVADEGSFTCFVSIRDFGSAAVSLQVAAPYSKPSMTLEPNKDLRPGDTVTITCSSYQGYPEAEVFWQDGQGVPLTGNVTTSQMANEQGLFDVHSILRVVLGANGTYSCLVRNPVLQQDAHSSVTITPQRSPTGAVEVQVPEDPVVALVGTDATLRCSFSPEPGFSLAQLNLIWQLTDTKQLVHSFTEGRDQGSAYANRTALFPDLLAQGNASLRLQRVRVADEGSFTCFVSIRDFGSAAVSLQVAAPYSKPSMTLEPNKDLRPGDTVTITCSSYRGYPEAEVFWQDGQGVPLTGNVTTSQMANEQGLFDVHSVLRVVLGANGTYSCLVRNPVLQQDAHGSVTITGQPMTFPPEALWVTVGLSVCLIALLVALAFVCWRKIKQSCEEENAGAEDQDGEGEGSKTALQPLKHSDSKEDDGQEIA
Assay: Affinity determination by surface plasmon resonance (SPR) to 4Ig B7-H3
Conditions: SPR KD—25° C., 4Ig B7-H3; 25° C. flow cell temperature

Row | SMILES | Kd
1 | CC(=O)N[C@@H](CCC(C)C)C(=O)N[C@@H](Cc1ccc(O)cc1)C(=O)N[C@H]1CSSC[C@@H](C(=O)N[C@@H](Cc2c[nH]c3ccc(F)cc23)C(=O)N[C@@H](CC(C)(C)C)C(=O)N[C@H](C(=O)N[C@H](CCCCNC(=O)CN2CCN(CC(=O)O)CCN(CC(=O)O)CCN(CC(=O)O)CC2)C(=O)O)[C@@H](C)O)NC(=O)[C@H](Cc2ccc(O)cc2)NC(=O)[C@H](C(C)C)NC(=O)[C@H](CC(=O)O)NC(=O)[C@H](CC2CCOCC2)NC(=O)[C@H](CCCCN)NC(=O)CNC(=O)[C@H](C(C)(C)C)NC1=O [compound 360, Ac-hLeu-Y-C-Tbg-G-K-ThpA-D-V-Y-C-5FW-tBuAla-Thr-dLys(DOTA)-COOH] (Ac-[hLeu]YC[Tle]GK[Ala(4-THP)]DVYC[Trp(5-F)][tBuAla]T[dK](DOTA)-OH; disulfide 3-11) | 0.001 to 0.01 µM
2 | CC(=O)N[C@@H](CCC(C)C)C(=O)N[C@@H](Cc1ccc(O)cc1)C(=O)N[C@H]1CSSC[C@@H](C(=O)N[C@@H](Cc2cccc3ccccc23)C(=O)N[C@@H](Cc2ccccc2)C(=O)N(C)[C@@H](CO)C(=O)N[C@H](CCCCNC(=O)CN2CCN(CC(=O)O)CCN(CC(=O)O)CCN(CC(=O)O)CC2)C(N)=O)NC(=O)[C@H](CC2CCOCC2)NC(=O)[C@H](C(C)C)NC(=O)[C@H](CC(=O)O)NC(=O)[C@H](Cc2ccncc2)NC(=O)[C@H](CCCCN)NC(=O)CNC(=O)[C@H](C(C)(C)C)NC1=O [compound 223, Ac-hLeu-Y-C-Tbg-G-K-4PyA-D-V-ThpA-C-1Nal-F-NMeSer-dLys(DOTA)-CONH2] (Ac-[hLeu]YC[Tle]GK[4Pal]DV[Ala(4-THP)]C[1Nal]F[NMeS][dK](DOTA)-NH2; disulfide 3-11) | 0.01 to 0.1 µM

Continued, values first:

Row | Kd | SMILES
3 | 0.01 to 0.1 µM | CC(=O)N[C@@H](CCC(C)C)C(=O)N[C@@H](Cc1ccc(O)cc1)C(=O)N[C@H]1CSSC[C@@H](C(=O)N[C@@H](Cc2c[nH]c3ccc(F)cc23)C(=O)N[C@@H](Cc2ccc(C(=O)O)cc2)C(=O)N[C@H](C(=O)N[C@H](CCCCNC(=O)CN2CCN(CC(=O)O)CCN(CC(=O)O)CCN(CC(=O)O)CC2)C(N)=O)[C@@H](C)O)NC(=O)[C@H](Cc2ccc(O)cc2)NC(=O)[C@H](C(C)C)NC(=O)[C@H](CC(=O)O)NC(=O)[C@H](Cc2ccc(O)cc2)NC(=O)[C@H](CCCCN)NC(=O)CNC(=O)[C@H](C(C)C)NC1=O [compound 166, Ac-hLeu-Y-C-V-G-K-Y-D-V-Y-C-5FW-4COOHPhe-Thr-dLys(DOTA)-CONH2] (Ac-[hLeu]YCVGKYDVYC[Trp(5-F)][Phe(4-COOH)]T[dK](DOTA)-NH2; disulfide 3-11)
4 | 0.001 to 0.01 µM | CC(=O)N[C@@H](CCC(C)C)C(=O)N[C@@H](Cc1ccc(O)cc1)C(=O)N[C@H]1CSSC[C@@H](C(=O)N[C@@H](Cc2c[nH]c3ccccc23)C(=O)N[C@@H](Cc2ccccc2)C(=O)N[C@H](C(N)=O)[C@@H](C)O)NC(=O)[C@H](Cc2ccc(O)cc2)NC(=O)[C@H](C(C)C)NC(=O)[C@H](CC(=O)O)NC(=O)[C@H](Cc2ccc(O)cc2)NC(=O)[C@H](CCCCNC(=O)CN2CCN(CC(=O)O)CCN(CC(=O)O)CCN(CC(=O)O)CC2)NC(=O)CNC(=O)[C@H](C(C)C)NC1=O [compound 145, Ac-hLeu-Y-C-V-G-Lys(DOTA)-Y-D-V-Y-C-W-F-Thr-CONH2] (Ac-[hLeu]YCVGK(DOTA)YDVYCWFT-NH2; disulfide 3-11)

Same assay, conditions: SPR KD—37° C., 4Ig B7-H3; 37° C. flow cell temperature

Row | Kd | SMILES
5 | < 0.001 µM | CC(=O)N[C@@H](CCC(C)C)C(=O)N[C@@H](Cc1ccc(O)cc1)C(=O)N[C@H]1CSSC[C@@H](C(=O)N[C@@H](Cc2cccc3ccccc23)C(=O)N[C@@H](Cc2ccccc2)C(=O)N[C@H](C(=O)N[C@H](CCCCNC(=O)CC[C@H](NC(=O)CN2CCN(CC(=O)O)CCN(CC(=O)O)CCN(CC(=O)O)CC2)C(=O)O)C(=O)O)C(C)(C)O)NC(=O)[C@H](Cc2ccc(O)cc2)NC(=O)[C@H](C(C)C)NC(=O)[C@H](CC(=O)O)NC(=O)[C@H](CC2CCOCC2)NC(=O)[C@H](CC2CCNCC2)NC(=O)CNC(=O)[C@H](C(C)(C)C)NC1=O [compound 441, Ac-hLeu-Y-C-Tbg-G-PipAla-ThpA-D-V-Y-C-1Nal-F-hydroxyVal-dLys(gGlu-DOTA)-COOH] (Ac-[hLeu]YC[Tle]G[Ala(piperidin-4-yl)][Ala(4-THP)]DVYC[1Nal]F[Val(3-OH)][dK]([γGlu-DOTA])-OH; disulfide 3-11)
6 | < 0.001 µM | CC(=O)N[C@@H](CCC(C)C)C(=O)N[C@@H](Cc1ccc(O)cc1)C(=O)N[C@H]1CSSC[C@@H](C(=O)N[C@@H](Cc2c[nH]c3ccc(F)cc23)C(=O)N[C@@H](Cc2ccccc2)C(=O)N[C@H](C(=O)N[C@H](CCCCNC(=O)CN2CCN(CC(=O)O)CCN(CC(=O)O)CCN(CC(=O)O)CC2)C(=O)O)C(C)(C)O)NC(=O)[C@H](Cc2ccc(O)cc2)NC(=O)[C@H](C(C)C)NC(=O)[C@H](CC(=O)O)NC(=O)[C@H](CC2CCC(O)CC2)NC(=O)[C@H](CC2CCNCC2)NC(=O)CNC(=O)[C@H](C(C)(C)C)NC1=O (single isomer, unassigned) [compound 479, Ac-hLeu-Y-C-Tbg-G-PipAla-4OHCha(pk1)-D-V-Y-C-5FW-F-hydroxyVal-dLys(DOTA)-COOH]
7 | < 0.001 µM | CC(=O)N[C@@H](CCC(C)C)C(=O)N[C@@H](Cc1ccc(O)cc1)C(=O)N[C@H]1CSSC[C@@H](C(=O)N[C@@H](Cc2c[nH]c3ccc(F)cc23)C(=O)N[C@@H](Cc2ccccc2)C(=O)N[C@H](C(=O)N[C@H](CO)C(=O)O)C(C)(C)O)NC(=O)[C@H](Cc2ccc(O)cc2)NC(=O)[C@H](C(C)C)NC(=O)[C@H](CC(=O)O)NC(=O)[C@H](CC2CCOCC2)NC(=O)[C@H](CC2CCN(C(=O)CCOCCOCCOCCOCCNC(=O)CN3CCN(CC(=O)O)CCN(CC(=O)O)CCN(CC(=O)O)CC3)CC2)NC(=O)CNC(=O)[C@H](C(C)(C)C)NC1=O [compound 490, Ac-hLeu-Y-C-Tbg-G-Pip(PEG4-DOTA)Ala-ThpA-D-V-Y-C-5FW-F-hydroxyVal-dSer-COOH] (Ac-[hLeu]YC[Tle]G[Ala(piperidin-4-yl)]([PEG4-DOTA])[Ala(4-THP)]DVYC[Trp(5-F)]F[Val(3-OH)][dS]-OH; disulfide 3-11)
8 | 0.1 to 0.3 µM | CCCC[C@H](NC(C)=O)C(=O)N[C@@H](Cc1ccc(O)cc1)C(=O)N[C@H]1CSSC[C@@H](C(=O)N[C@@H](Cc2c[nH]c3ccccc23)C(=O)N[C@@H](Cc2ccccc2)C(=O)N[C@@H](CCC(=O)N[C@H](CCCCNC(=O)CN2CCN(CC(=O)O)CCN(CC(=O)O)CCN(CC(=O)O)CC2)C(N)=O)C(=O)O)NC(=O)[C@H](Cc2ccc(O)cc2)NC(=O)[C@H](C(C)C)NC(=O)[C@H](CC(=O)O)NC(=O)[C@H](Cc2ccc(O)cc2)NC(=O)[C@H](CCCCN)NC(=O)CNC(=O)[C@H](C(C)C)NC1=O [compound 31, Ac-Nle-Y-C-V-G-K-Y-D-V-Y-C-W-F-gE-dLys(DOTA)-CONH2] (Ac-[Nle]YCVGKYDVYCWF[γGlu][dK](DOTA)-NH2; disulfide 3-11)
9 | < 0.001 µM | CC(=O)N[C@@H](CCC(C)C)C(=O)N[C@@H](Cc1ccc(O)cc1)C(=O)N[C@H]1CSSC[C@@H](C(=O)N[C@@H](Cc2c[nH]c3ccc(F)cc23)C(=O)N[C@@H](Cc2ccccc2)C(=O)N[C@H](C(=O)N[C@H](CCC(=O)O)C(=O)O)C(C)(C)O)NC(=O)[C@H](Cc2ccc(O)cc2)NC(=O)[C@H](C(C)C)NC(=O)[C@H](CC(=O)O)NC(=O)[C@H](CC2CCN(C(=O)CCOCCOCCOCCOCCNC(=O)CN3CCN(CC(=O)O)CCN(CC(=O)O)CCN(CC(=O)O)CC3)CC2)NC(=O)[C@H](CC2CCNCC2)NC(=O)CNC(=O)[C@H](C(C)(C)C)NC1=O [compound 448, Ac-hLeu-Y-C-Tbg-G-PipAla-Pip(PEG4-DOTA)Ala-D-V-Y-C-5FW-F-hydroxyVal-dGlu-COOH] (Ac-[hLeu]YC[Tle]G[Ala(piperidin-4-yl)][Ala(piperidin-4-yl)]([PEG4-DOTA])DVYC[Trp(5-F)]F[Val(3-OH)][dE]-OH; disulfide 3-11)
10 | 0.001 to 0.01 µM | CC(=O)N[C@@H](CCC(C)C)C(=O)N[C@@H](Cc1ccc(O)cc1)C(=O)N[C@H]1CSSC[C@@H](C(=O)N[C@@H](Cc2c[nH]c3ccc(F)cc23)C(=O)N[C@@H](Cc2ccccc2)C(=O)N[C@H](C(=O)N[C@H](CCCCNC(=O)CN2CCN(CC(=O)O)CCN(CC(=O)O)CCN(CC(=O)O)CC2)C(=O)O)C(C)(C)O)NC(=O)[C@H](Cc2ccc(O)cc2)NC(=O)[C@H](CCO)NC(=O)[C@H](CC(=O)O)NC(=O)[C@H](CC2CCOCC2)NC(=O)[C@H](CCCCN)NC(=O)CNC(=O)[C@H](C(C)(C)C)NC1=O [compound 373, Ac-hLeu-Y-C-Tbg-G-K-ThpA-D-hSer-Y-C-5FW-F-hydroxyVal-dLys(DOTA)-COOH] (Ac-[hLeu]YC[Tle]GK[Ala(4-THP)]D[hSer]YC[Trp(5-F)]F[Val(3-OH)][dK](DOTA)-OH; disulfide 3-11)
11 | < 0.001 µM | CC(=O)N[C@@H](CCC(C)C)C(=O)N[C@@H](Cc1ccc(O)cc1)C(=O)N[C@H]1CSSC[C@@H](C(=O)N[C@@H](Cc2c[nH]c3ccccc23)C(=O)N[C@@H](Cc2ccccc2)C(=O)N[C@H](C(=O)N[C@H](C)C(N)=O)[C@@H](C)O)NC(=O)[C@H](Cc2ccc(O)cc2)NC(=O)[C@H](C(C)C)NC(=O)[C@H](CC(=O)O)NC(=O)[C@H](Cc2ccc(OCCNC(=O)CN3CCN(CC(=O)O)CCN(CC(=O)O)CCN(CC(=O)O)CC3)cc2)NC(=O)[C@H](CCCCN)NC(=O)CNC(=O)[C@H](C(C)C)NC1=O [compound 136, Ac-hLeu-Y-C-V-G-K-AEF(DOTA)-D-V-Y-C-W-F-Thr-dAla-CONH2] (Ac-[hLeu]YCVGK[AEF](DOTA)DVYCWFT[dA]-NH2; disulfide 3-11)
